Among the data in patent US20160355475A1, “NOVEL INDOLE DERIVATIVE COMPOUND AND PHARMACEUTICAL COMPOSITION COMPRISING THE SAME” (CHONG KUN DANG PHARMACEUTICAL CORP., priority 2014, published 2016) are IC50 values, retold here.

In this test the target is T1, HDAC6 human recombinant (Homo sapiens, UniProt Q9UBN7).
T1 construct: purchased Calbiochem 382180
T1 sequence (Q9UBN7 1-1215): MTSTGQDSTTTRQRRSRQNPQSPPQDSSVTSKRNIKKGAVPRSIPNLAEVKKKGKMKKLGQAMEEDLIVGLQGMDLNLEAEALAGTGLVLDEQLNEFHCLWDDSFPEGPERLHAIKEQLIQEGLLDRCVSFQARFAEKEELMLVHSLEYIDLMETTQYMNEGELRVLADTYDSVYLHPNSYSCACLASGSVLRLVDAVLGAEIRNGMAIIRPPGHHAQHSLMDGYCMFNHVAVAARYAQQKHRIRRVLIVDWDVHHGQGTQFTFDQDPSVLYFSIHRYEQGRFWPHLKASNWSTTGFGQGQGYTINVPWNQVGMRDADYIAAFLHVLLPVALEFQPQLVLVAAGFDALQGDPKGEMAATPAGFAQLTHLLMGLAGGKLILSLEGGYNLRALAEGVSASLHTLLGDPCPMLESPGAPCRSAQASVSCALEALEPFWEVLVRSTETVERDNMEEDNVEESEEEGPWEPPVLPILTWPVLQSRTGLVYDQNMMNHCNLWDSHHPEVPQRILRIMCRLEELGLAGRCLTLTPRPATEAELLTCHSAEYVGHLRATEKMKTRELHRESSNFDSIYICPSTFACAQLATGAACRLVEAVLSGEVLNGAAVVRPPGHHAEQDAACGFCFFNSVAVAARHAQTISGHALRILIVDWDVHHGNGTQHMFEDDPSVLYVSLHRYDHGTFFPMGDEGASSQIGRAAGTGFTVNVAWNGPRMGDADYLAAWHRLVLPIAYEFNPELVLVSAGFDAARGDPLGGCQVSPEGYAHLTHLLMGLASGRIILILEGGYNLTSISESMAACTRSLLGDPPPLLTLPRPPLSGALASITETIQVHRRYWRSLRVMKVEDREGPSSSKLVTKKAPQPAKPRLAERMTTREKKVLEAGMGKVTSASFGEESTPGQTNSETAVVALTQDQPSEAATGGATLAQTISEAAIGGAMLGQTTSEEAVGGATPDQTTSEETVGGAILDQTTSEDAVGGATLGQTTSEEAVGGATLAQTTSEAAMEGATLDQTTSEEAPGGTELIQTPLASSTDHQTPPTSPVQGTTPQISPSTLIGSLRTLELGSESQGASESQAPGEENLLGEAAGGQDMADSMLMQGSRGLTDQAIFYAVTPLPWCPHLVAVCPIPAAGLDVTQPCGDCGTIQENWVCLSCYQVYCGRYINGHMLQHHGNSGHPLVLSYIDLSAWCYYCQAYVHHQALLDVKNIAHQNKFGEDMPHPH
The test is described as follows: HDAC6 enzyme activity inhibition (fluorimetric, in vitro). Format: biochemical. As to conditions: 37° C., 60 minutes; tested at 0.1, 1, 10, 100 and 1000 nM. The method, then: 1. Experiment on Activities in HDAC Enzymes (HDAC1 and HDAC6)
Assays were performed using a HDAC1 fluorimetric drug discovery assay kit (Enzolifesciences: BML-AK511) and a HDAC6 human recombinant (Calbiochem: 382180). The assay mixture of the kit was treated with each of the compounds of the Examples at concentrations 100, 1000 and 10000 nM for HDAC1 assay and 0.1, 1, 10, 100 and 1000 nM for HDAC6 assay. The treated assay mixture was allowed to react at 37° C. for 60 minutes, and then was treated with a developer and allowed to stand at 37° C. for 30 minutes, followed by quantification of the fluorescence. In Table 17, lower HDAC6 values (μM) indicate higher HDAC6 inhibitory activities of the compounds. Also, because selective HDAC6 inhibitors should not inhibit HDAC1 (μM), higher HDAC1 values indicate higher HDAC6 selectivity of the compounds.
The term IC50 denotes the concentration that inhibits the measured activity by half. On to `Cc1c(Cc2ccc(C(=O)NO)cn2)c2ccccc2n1CCN1CCN(C)CC1` [Compound 243, N-hydroxy-6-((2-methyl-1-(2-(4-methylpeperazin-1-yl)ethyl)-1H-indol-3-yl)methyl)nicotinamide], for which the IC50 turned out to be 340 nM.

In the case of `Cc1c(Cc2ccc(C(=O)NO)cn2)c2ccccc2n1CCN1CCOCC1` [Compound 244, N-hydroxy-6-((2-methyl-1-(2-morpholinoethyl)-1H-indol-3-yl)methyl)nocotinamide], the IC50 stood at 236 nM.

Regarding `Cc1c(Cc2ccc(C(=O)NO)cc2)c2ccccc2n1CCN1CCCC(F)C1` (stereo not shown) [Compound 550, 4-((1-(2-(3-fluoropiperidin-1-yl)ethyl)-2-methyl-1H-indol-3-yl)methyl)-N-hydroxybenzamide], the concentration for half-maximal inhibition (IC50) is 68 nM.

For `Cc1c(Cc2ccc(C(=O)NO)cc2)c2ccccc2n1CCN1CCC[C@H]1CF` [Compound 551, (S)-4-((1-(2-(2-(fluoromethyl)pyrrolidin-1-yl)ethyl)-2-methyl-1H-indol-3-yl)methyl)-N-hydroxybenzamide], the concentration for half-maximal inhibition (IC50) came out at 82 nM.

On to `Cc1c(Cc2ccc(C(=O)NO)cc2)c2ccccc2n1CC1CCN(Cc2ccccc2)CC1` [Compound 556, 4-((1-((1-Benzylpiperidin-4-yl)methyl)-2-methyl-1H-indol-3-yl)methyl)-N-hydroxybenzamide], for which the concentration for half-maximal inhibition (IC50) was 108 nM.

Consider `Cc1c(Cc2ccc(C(=O)NO)cc2)c2ccccc2n1CC1CCN(CCc2ccccc2)CC1` [Compound 559, N-hydroxy-4-((2-methyl-1-((1-phenethylpiperidin-4-yl)methyl)-1H-indol-3-yl)methyl)benzamide], for which the IC50 came out at 273 nM.

Regarding `Cc1c(Cc2ccc(C(=O)NO)cc2F)c2ccccc2n1CC1CCN(CC(C)(C)F)CC1` [Compound 562, 3-Fluoro-4-((1-((1-(2-fluoro-2-methylpropyl)piperidin-4-yl)methyl)-2-methyl-1H-indol-3-yl)methyl)-N-hydroxybenzamide], the 50% inhibitory concentration (IC50) was determined as 87 nM.

Consider `Cc1c(Cc2ccc(C(=O)NO)cc2)c2ccccc2n1CCC1CCN(CC(C)(C)F)CC1` [Compound 563, 4-((1-(2-(1-(2-Fluoro-2-methylpropyl)piperidin-4-yl)ethyl)-2-methyl-1H-indol-3-yl)methyl)-N-hydroxybenzamide], for which the IC50 was 307 nM.

Turning to `Cc1c(Cc2ccc(C(=O)NO)cc2)c2ccccc2n1CC1CCN(CC2(F)CCOCC2)CC1` [Compound 584, 4-((1-((1-((4-Fluoro-tetrahydro-2H-pyran-4-yl)methyl)piperidin-4-yl)methyl)-2-methyl-1H-indol-3-yl)methyl)-N-hydroxybenzamide], the half-inhibitory concentration (IC50) was 7 nM.

With `CC(C)(F)CN1CCC(Cn2cc(Cc3ccc(C(=O)NO)cc3)c3ccccc32)CC1` [Compound 614, 4-((1-((1-(2-Fluoro-2-methylpropyl)piperidin-4-yl)methyl)-1H-indol-3-yl)methyl)-N-hydroxybenzamide], the 50% inhibitory concentration (IC50) was found to be 150 nM.

For `CC(C)(F)CN1CCC(Cn2c(-c3ccccc3)c(Cc3ccc(C(=O)NO)cc3)c3ccccc32)CC1` [Compound 616, 4-((1-((1-(2-Fluoro-2-methylpropyl)piperidin-4-yl)methyl)-2-phenyl-1H-indol-3-yl)methyl)-N-hydroxybenzamide], the half-inhibitory concentration (IC50) was determined as 821 nM.

Regarding `Cc1c(Cc2ccc(C(=O)NO)cc2)c2ccccc2n1CC1CCN(Cc2ccncc2)CC1` [Compound 621, N-hydroxy-4-((2-methyl-1-((1-(pyridin-4-ylmethyl)piperidin-4-yl)methyl)-1H-indol-3-yl)methyl)benzamide], the 50% inhibitory concentration (IC50) was found to be 89 nM.

For the compound `Cc1c(Cc2ccc(C(=O)NO)cc2)c2ccccc2n1CC1CCN(Cc2ccc(F)cc2)CC1` [Compound 622, 4-((1-((1-(4-Fluorobenzyl)piperidin-4-yl)methyl)-2-methyl-1H-indol-3-yl)methyl)-N-hydroxybenzamide], the IC50 came out at 90 nM.
